# Experimental data published in US9056067B2, “Pharmaceutical composition for enhancing immunity, and extract of Poria” (Sinphar Pharmaceutical Co., Ltd., priority 2003, dated 2015).
# Where “and” joins values, the source holds several entries; their conditions need not be identical. Identical values can stand only once.
# Key:
# spleen cells = test: Spleen cell growth (MTT assay) after oral administration; type: in vivo, mice
# Experimental: BALB/c male mice, 6-8 weeks old, were used throughout the experiment. The animals were purchased from National Laboratory Animal Center, Taipei, Taiwan. The mice were housed in the Individual Ventilation Cage System, which provided an environment of Specific Pyrogen-Free. The facilities had 12-h day/night rhythm, 24-26° C. and 30-70% humidity in air. Mice were fed autoclaved water and rodent chow, and the bedding was sterilized by autoclave also. The feedstock purchased from animal center of National Taiwan University composed of crude proteins (>23.0%), crude fat (>4.5%), crude fiber (<6.0%), ash (<8.0%), added minerals (<3.0%) and water (<12%). After transport, the mice were allowed to rest for two weeks before the experiments were started.
# […] […] The control group was the mice feeding with an equal volume of saline (0.85% of NaCl). Mice were sacrificed at day five, and both the serum and spleen cells were collected. The sera were subsequently used to measure the concentration of IgG, IgM and IgA. The spleen cells were plated onto a 100 mm diameter culture plate and incubated at 37° C. for three hours. The non-adherent cells containing T-lymphocytes, B-lymphocytes and NK cells were collected and properly diluted as described in each assay.
# The dry powder of PCM, PCM-K1, K-2, K-3 and K4 were suspended in sterile water, followed by sonication to break down the large particle. The suspension of fine particles was used to feed the animals.
# (§1) The mouse to be sacrificed was cervical dislocated and sterilized with 70% ethanol. The cardiac punctuation was performed first to withdraw the blood. After the haemagglutination, the blood sample was subjected to centrifugation and the serum was collect. For isolation of spleen cells, the peritoneum was opened to remove the spleen. The fresh spleen was transferred to a culture plate containing 10 ml of RPMI-1640 culture medium. The spleen was then ground over a fine mesh to release the spleen cells. The spleen cells suspending in the medium were then removed and transferred to a 50-ml conical centrifuge tube. The tube was subjected to centrifugation at 1300 rpm for 10 min. The supernatant was discarded and the pellet was re-suspended in 1 ml of cold RBC lysing buffer containing EDTA-NH4Cl. The cells were incubated at room temperature for 10 min, followed by washing the cells three times with culture medium by centrifugation. The spleen cells were plated onto a 100 mm diameter culture plate and incubated at 37° C. for three hours. The non-adherent cells containing T-lymphocytes, B-lymphocytes and NK cells were collected and properly diluted as described in each assay.
# MTT assay is the method routinely used for estimating the viable cell number and viability of the cultured cells. The basic principle is that the only mitochondria in a viable cells contain biologically activated oxido-reductive enzymes. The enzymes interact with MTT reagents to convert the chemical into a relatively insoluble blue crystal. The crystal is then solubilized in an acidic isopropanol and the absorbence at 570 nm in each well was read using an ELISA reader (EL311, BioTek, VT). Briefly, the spleen cells suspended in a medium containing RPMI 1640 supplemented with 10% fetal bovine serum (FBS), 2 mM L-glutamine, antibiotics and 1 μg/ml concanavalin A (Con A) were cultured in the 96-well flat-bottom plate (5×10^5 cells/100 μl/well) for 5 days. MTT assay was performed at day 3, 4 and 5. MTT tetrazolium (3-(4-5-dimethylthiazol-2-yl)-2,5-diphenyltertrazolium bromide) (5 mg/ml in phosphate-buffered saline) (Sigma Chemical, St. Louis, Mo.) was added to the spleen cells (20 μl MTT per 100 μl cells), and plates were incubated at 37° C. for 4 h. Acid-isopropanol (100 μl of 0.04 NHCL in isopropanol) was added to all wells and mixed completely to dissolve the dark blue crystals. After 20 minutes at room temperature to ensure that all crystals were dissolved, the plates were read on an EIA reader at 570 nm.
# IFN-γ = IFN-γ secretion by Con A-stimulated spleen cells (ELISA) after oral administration; type: in vivo, mice; details: for IFN-γ secretion by spleen cell: Con A; for Dose with significantly augmented IFNγ secretion by ConA-stimulated splenic T cells: oral
# Experimental: For the drug treatment, the animals were divided into four groups and oral administration with 1 ml of PCM, ranging from 10, 40 to 80 mg/kg/day, for four days. […] The control group was the mice feeding with an equal volume of saline (0.85% of NaCl). Mice were sacrificed at day five, and both the serum and spleen cells were collected. The sera were subsequently used to measure the concentration of IgG, IgM and IgA. The spleen cells were plated onto a 100 mm diameter culture plate and incubated at 37° C. for three hours. The non-adherent cells containing T-lymphocytes, B-lymphocytes and NK cells were collected and properly diluted as described in each assay.
# as §1
# For the quantitative analysis of IFN-γ and IL-10, the spleen cells (1×10^6 cells/ml) were cultured in a medium containing RPMI 1640 supplemented with 10% fetal bovine serum (FBS), 2 mM L-glutamine, antibiotics and 1 μg/ml concanavalin A (Con A) for 3 days. Con A is one of the polyclonal activators for T lymphocyte. Culture spleen cell supernatants were collected. The IFNγ and IL-10 concentrations were measured using a cytokine ELISA set (Cyto Set ELISA kit) purchased from R&D Systems (MN, USA).
# Cyto Set ELISA was performed as follows: A 96-well microtiter plate (Nunc-Immuno Plate, MaxiSorp, Nunc, Denmark) was precoated with capture antibodies at 4° C. overnight. The capture antibody was a rat monoclonal antibody to mouse IL-10. The samples to be tested and standard IL-10 ranged from 500 pg/ml to 15.6 pg/ml were added (100 μl/well). The plate was then incubated at 37° C. for 20 min. At the end of incubation, the plate was washed five times, followed by adding the biotinylated goat anti IL-10 polyclonal antibody. The color was developed by incubating the plate with a HRP-conjugated streptoavidin (Zymed, CA, USA), followed by a substrate solution containing hydrogen peroxide and tetramethylbenzidine (TMB). The reaction continued for 30 min at room temperature, and was stopped by adding 100 μl of 2N of sulfuric acid. The absorbence at 450 nm in each well was read using an ELISA reader (EL311, BioTek, Winooski, Vt.), and the data was analyzed using log-logit model.
# Cyto Set ELISA of IFN-γ was similar to that of IL-10, except that the capture antibody was a rat monoclonal antibody to mouse IFN-γ, and secondary antibody was biotinylated goat anti IFN-γ polyclonal antibody.
# TH1-type cytokines, such as interleukin-2 (IL-2), interferon-γ (IFN-γ) induces the cellular immune response. Whereas, TH2-type cytokines, such as interleukin-4 (IL-4), interleukin-5 (IL-5), interleukin-6 (IL-6), stimulates the B lymphocyte-mediated humoral immune response. […] Spleen cells isolated from the mice treated with PCM and its purified components, such as PCM-K1, -K2, -K3 and K4, were cultured for five days in the presence of ConA. […]
# [1] = oral 10 mg/kg/day for four days
# [2] = oral 20 mg/kg/day for four days
Compound,"Spleen cell growth, absorbance at 570 nm (MTT assay), incubation day 3 (spleen cells; oral 5 mg/kg/day for four days)","Spleen cell growth, absorbance at 570 nm (MTT assay), incubation day 4 (spleen cells; oral 5 mg/kg/day for four days)","Spleen cell growth, absorbance at 570 nm (MTT assay), incubation day 5 (spleen cells; oral 5 mg/kg/day for four days)","Spleen cell growth, absorbance at 570 nm (MTT assay), incubation day 3 (spleen cells; [1])","Spleen cell growth, absorbance at 570 nm (MTT assay), incubation day 4 (spleen cells; [1])","Spleen cell growth, absorbance at 570 nm (MTT assay), incubation day 5 (spleen cells; [1])","Spleen cell growth, absorbance at 570 nm (MTT assay), incubation day 3 (spleen cells; [2])","Spleen cell growth, absorbance at 570 nm (MTT assay), incubation day 4 (spleen cells; [2])","Spleen cell growth, absorbance at 570 nm (MTT assay), incubation day 5 (spleen cells; [2])",IFN-γ secretion by spleen cell (IFN-γ; oral 5 mg/kg/day for four days) [pg/mL],IFN-γ secretion by spleen cell (IFN-γ; [1]) [pg/mL],IFN-γ secretion by spleen cell (IFN-γ; [2]) [pg/mL],Dose with significantly augmented IFNγ secretion by ConA-stimulated splenic T cells (IFN-γ; listed as PCM-K3),Dose with significantly augmented IFNγ secretion by ConA-stimulated splenic T cells (IFN-γ) [mg/kg/day]
C=C(CC[C@@H](C(=O)O)[C@H]1[C@H](O)C[C@@]2(C)C3=CC[C@H]4C(C)(C)C(=O)CC[C@]4(C)C3=CC[C@]12C)C(C)C [K3],1.154 ± 0.172,0.841 ± 0.160,0.864 ± 0.194,1.020 ± 0.090,0.900 ± 0.193,0.957 ± 0.200,1.103 ± 0.081,1.068 ± 0.132,0.943 ± 0.159,917.07 ± 130.41,449.74 ± 100.67,176.20 ± 45.96,5 mg/kg/day and 10 mg/kg/day,
C=C(CCC(C(=O)O)C1C(O)CC2(C)C3=CCC4C(C)(CCC(O)C4(C)C)C3=CCC12C)C(C)C (centres unmarked) [K4],0.949 ± 0.101,0.981 ± 0.087,0.862 ± 0.085,1.198 ± 0.101,1.273 ± 0.147,1.177 ± 0.078,1.233 ± 0.040,1.263 ± 0.041,1.061 ± 0.124,240.45 ± 107.83,252.26 ± 103.76,292.00 ± 77.77,,20
